Activity calls are given as the source filed them. The calls are words filed in the database; no cut-off is given here.
How the values were obtained:
[1] = Inhibition of Photosystem 2 in spinach thylakoid membrane assessed as inhibition of photosynthetic oxygen evolution; assay type: cell membranes, Spinacia oleracea
Lactuca sativa [2] = test: Phytotoxicity against Lactuca sativa assessed as inhibition of seedlings germination at 3.33 mM after 4 days; assay type: functional, organism-based
Lactuca sativa [3] = test: Phytotoxicity against Lactuca sativa assessed as inhibition of seedlings germination at 1.0 mM after 4 days; assay type: functional, organism-based

Row | IC50 [1] [nM] | SMILES | Activity (Lactuca sativa [2]) | Activity (Lactuca sativa [3])
1 | 230 | CN(C)C(=O)Nc1ccc(Cl)c(Cl)c1 [DCMU] | – | –
2 | 90 | C=CC/C=C\C/C=C\CCCCCCCc1c(O)c(OC)cc(OC)c1O | Active | Active
3 | 200 | C=CC/C=C\C/C=C\CCCCCCCc1c(O)c(OC)cc(OCC)c1O [E565] | – | –

Row | SMILES | IC50 [1] [nM] | Activity (Lactuca sativa [2]) | Activity (Lactuca sativa [3])
4 | C=CC/C=C\C/C=C\CCCCCCCC1=C(O)C(=O)C=C(OC)C1=O [SORGOLEONE] | 90 | Active | –

Source: ChEMBL document CHEMBL1158884, “PSII inhibitory activity of resorcinolic lipids from Sorghum bicolor” (J Nat Prod, 2003)
